{
  "source": "patent US5112809A",
  "about": "“CRF analogs” (The Salk Institute for Biological Studies, priority 1990, dated 1992)",
  "tested_on": "cultured rat pituitary cells",
  "experiment": "secretion of ACTH and β-endorphin by cultured rat pituitary cells in vitro",
  "type": "cell-based",
  "details": "read-out: concentration at which half-maximal responses are observed (stimulation of secretion of ACTH and β-endorphin)",
  "method": "The synthetic peptides from Example I and synthetic oCRF are examined for their effects on the secretion of ACTH and β-endorphin in vitro and also in vivo. The potency of synthetic oCRF to stimulate the secretion of ACTH and β-endorphin by cultured rat pituitary cells is measured using the procedure as generally set forth in Endocrinology, 91, 562 (1972). Half-maximal responses are observed at concentrations of the two peptides which are less than the synthetic oCRF concentration of about 250 picomolar which is needed to achieve such a response. In vivo testing using the general procedure set forth in C.",
  "data": [
    {"substance": "oCRF: ovine corticotropin releasing factor, 41-residue peptide, formula disclosed in U.S. Pat. No. 4,415,558", "values": [
      {"measurement": "EC50", "value": "~0.25", "unit": "nM"}
    ]}
  ]
}
